The source of these data is ChEMBL document CHEMBL4145589, “Aminoisoxazoles as Potent Inhibitors of Tryptophan 2,3-Dioxygenase 2 (TDO2)” (ACS Med Chem Lett, 2018).

Data set [1] deals with A 172. Nature of the data set: Cytotoxicity against human A172 cells assessed as reduction in cell viability up to 25 uM by Cell Titer-Glo based luminescence assay. For orientation: In ATP-based viability assays light output follows the ATP content of the culture.
Data set [2] has as its target T1, Tryptophan 2,3-dioxygenase (Homo sapiens, UniProt P48775). Briefly: Inhibition of TDO2 in human SW48 cells assessed as decrease in conversion of tryptophan to N-formylkynurenine after 30 mins by fluorescence assay. Format: cell-based.
Data set [3] has as its target T1, Tryptophan 2,3-dioxygenase. Briefly: Inhibition of recombinant human TDO2 assessed as decrease in conversion of L-tryptophan to N-formylkynurenine preincubated for 5 mins followed by 0.2 mM substrate addition measured after 15 mins by RapidFire mass spectrometry based fluorescence assay.
For data set [4], the system named is SW48. Briefly: Cytotoxicity against human SW48 cells assessed as reduction in cell viability up to 25 uM by Cell Titer-Glo based luminescence assay.
Data set [5] is described as follows: Metabolic stability in rat whole blood assessed as parent compound remaining at 0.5 mM after 2 hrs by LC-MS/MS analysis. Format: ADME, tissue-based. Conditions: read-out: Stability.
Data set [6] in a line: Metabolic stability in dog whole blood assessed as parent compound remaining at 0.5 mM after 2 hrs by LC-MS/MS analysis. Type of data set: ADME, tissue-based, Canis lupus familiaris. Conditions: read-out: Stability.
Data set [7] is described as follows: Metabolic stability in human whole blood assessed as parent compound remaining at 0.5 mM after 2 hrs by LC-MS/MS analysis. Conditions: read-out: Stability. Format: ADME, tissue-based.
In data set [8] the target is T1, Tryptophan 2,3-dioxygenase. Nature of the data set: Competitive inhibition of recombinant human TDO2 assessed as decrease in conversion of L-tryptophan to N-formylkynurenine preincubated for 5 mins followed by 1 mM substrate addition measured after 15 mins by RapidFire mass spectrometry based fluorescence assay.
The target in data set [9] is T2, Cytochrome P450 1A2 (Homo sapiens, UniProt P05177).
T2 sequence (P05177 whole entry): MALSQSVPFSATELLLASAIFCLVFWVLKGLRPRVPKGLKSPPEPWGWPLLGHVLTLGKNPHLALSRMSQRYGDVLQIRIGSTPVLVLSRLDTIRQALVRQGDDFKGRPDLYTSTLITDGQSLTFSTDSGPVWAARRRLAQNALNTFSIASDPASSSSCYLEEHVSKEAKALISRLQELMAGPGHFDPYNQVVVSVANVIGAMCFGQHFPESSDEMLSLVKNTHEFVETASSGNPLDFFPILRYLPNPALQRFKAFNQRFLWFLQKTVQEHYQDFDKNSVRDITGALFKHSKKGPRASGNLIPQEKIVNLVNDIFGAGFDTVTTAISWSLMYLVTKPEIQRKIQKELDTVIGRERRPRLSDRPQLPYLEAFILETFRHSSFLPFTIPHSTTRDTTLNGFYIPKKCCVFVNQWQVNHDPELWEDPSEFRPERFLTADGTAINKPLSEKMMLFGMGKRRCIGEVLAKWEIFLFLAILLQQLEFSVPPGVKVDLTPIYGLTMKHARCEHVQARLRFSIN
Briefly: Inhibition of CYP1A2 (unknown origin). Type of data set: ADME.

Data set [10] has as its target Cytochrome P450 2C19 (Homo sapiens, UniProt P33261). Nature of the data set: Inhibition of CYP2C19 (unknown origin). Format: ADME.
Data set [11] addresses Cytochrome P450 2C9 (Homo sapiens, UniProt P11712). Nature of the data set: Inhibition of CYP2C9 (unknown origin). Format: ADME.
The target of data set [12] is Cytochrome P450 2D6 (Homo sapiens, UniProt P10635). Nature of the data set: Inhibition of CYP2D6 (unknown origin). Type of data set: ADME.
The target in data set [13] is Cytochrome P450 3A4 (Homo sapiens, UniProt P08684). Nature of the data set: Inhibition of CYP3A4 (unknown origin). Type of data set: ADME.
Data set [14] is described as follows: Metabolic stability in rat whole blood assessed as parent compound remaining at 0.5 mM after 30 mins by LC-MS/MS analysis. Conditions: read-out: Stability. Type of data set: ADME, tissue-based.
Data set [15] is described as follows: Metabolic stability in dog whole blood assessed as parent compound remaining at 0.5 mM after 30 mins by LC-MS/MS analysis. Format: ADME, tissue-based, Canis lupus familiaris. Conditions: read-out: Stability.

Where only a bound is given, the exact number is not on record here.

Chain of Cytochrome P450 2D6 (P10635 whole entry): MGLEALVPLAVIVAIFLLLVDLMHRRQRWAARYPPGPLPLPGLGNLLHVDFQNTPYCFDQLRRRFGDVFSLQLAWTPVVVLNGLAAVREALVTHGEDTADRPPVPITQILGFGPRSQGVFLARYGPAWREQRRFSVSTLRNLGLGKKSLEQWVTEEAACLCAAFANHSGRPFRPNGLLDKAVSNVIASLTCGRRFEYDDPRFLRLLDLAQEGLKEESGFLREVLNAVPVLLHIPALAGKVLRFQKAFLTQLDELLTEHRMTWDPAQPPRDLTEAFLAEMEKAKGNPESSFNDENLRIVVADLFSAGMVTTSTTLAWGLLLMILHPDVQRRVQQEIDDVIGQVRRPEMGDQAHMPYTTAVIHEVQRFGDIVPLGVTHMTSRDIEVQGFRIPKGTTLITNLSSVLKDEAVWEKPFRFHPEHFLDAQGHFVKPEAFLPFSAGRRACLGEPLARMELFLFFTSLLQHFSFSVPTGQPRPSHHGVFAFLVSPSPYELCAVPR
Chain of Cytochrome P450 3A4 (P08684 whole entry): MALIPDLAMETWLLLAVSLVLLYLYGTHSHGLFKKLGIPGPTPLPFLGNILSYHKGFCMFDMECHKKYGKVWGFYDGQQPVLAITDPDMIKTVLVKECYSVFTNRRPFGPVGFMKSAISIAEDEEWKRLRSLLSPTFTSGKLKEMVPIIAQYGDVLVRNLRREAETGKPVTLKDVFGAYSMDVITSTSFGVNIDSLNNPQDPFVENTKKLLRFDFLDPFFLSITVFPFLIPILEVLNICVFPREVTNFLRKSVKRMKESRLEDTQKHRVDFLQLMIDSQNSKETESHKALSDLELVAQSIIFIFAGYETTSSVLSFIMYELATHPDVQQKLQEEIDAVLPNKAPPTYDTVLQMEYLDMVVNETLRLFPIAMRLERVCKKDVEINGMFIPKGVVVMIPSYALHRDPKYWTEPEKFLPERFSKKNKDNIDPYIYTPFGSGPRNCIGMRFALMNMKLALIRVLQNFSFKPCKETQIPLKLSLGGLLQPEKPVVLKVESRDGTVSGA
T1 sequence (P48775 whole entry): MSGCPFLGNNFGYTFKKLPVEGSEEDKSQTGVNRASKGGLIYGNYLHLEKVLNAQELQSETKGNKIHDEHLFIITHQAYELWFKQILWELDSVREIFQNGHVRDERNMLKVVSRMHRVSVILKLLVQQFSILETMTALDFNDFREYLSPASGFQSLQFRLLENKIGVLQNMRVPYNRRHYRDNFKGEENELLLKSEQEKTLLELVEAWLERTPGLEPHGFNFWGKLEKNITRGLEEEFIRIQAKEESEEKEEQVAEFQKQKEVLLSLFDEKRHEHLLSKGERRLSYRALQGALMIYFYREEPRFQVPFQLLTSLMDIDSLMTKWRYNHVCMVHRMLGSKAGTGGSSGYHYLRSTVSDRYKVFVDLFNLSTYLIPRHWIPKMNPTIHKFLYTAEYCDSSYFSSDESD
Chain of Cytochrome P450 2C19 (P33261 whole entry): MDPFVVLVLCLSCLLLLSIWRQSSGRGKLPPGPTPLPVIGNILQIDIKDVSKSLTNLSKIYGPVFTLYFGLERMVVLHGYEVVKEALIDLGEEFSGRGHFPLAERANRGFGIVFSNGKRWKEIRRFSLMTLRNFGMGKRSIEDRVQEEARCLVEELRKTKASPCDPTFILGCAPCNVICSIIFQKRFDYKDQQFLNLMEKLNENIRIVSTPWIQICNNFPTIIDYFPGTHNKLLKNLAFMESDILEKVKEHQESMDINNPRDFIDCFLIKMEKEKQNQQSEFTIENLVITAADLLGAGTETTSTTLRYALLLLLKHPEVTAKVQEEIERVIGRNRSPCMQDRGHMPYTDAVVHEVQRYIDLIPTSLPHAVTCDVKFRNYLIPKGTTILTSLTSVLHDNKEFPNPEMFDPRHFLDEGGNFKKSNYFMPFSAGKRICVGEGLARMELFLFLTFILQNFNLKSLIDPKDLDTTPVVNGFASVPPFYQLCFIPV
Chain of Cytochrome P450 2C9 (P11712 whole entry): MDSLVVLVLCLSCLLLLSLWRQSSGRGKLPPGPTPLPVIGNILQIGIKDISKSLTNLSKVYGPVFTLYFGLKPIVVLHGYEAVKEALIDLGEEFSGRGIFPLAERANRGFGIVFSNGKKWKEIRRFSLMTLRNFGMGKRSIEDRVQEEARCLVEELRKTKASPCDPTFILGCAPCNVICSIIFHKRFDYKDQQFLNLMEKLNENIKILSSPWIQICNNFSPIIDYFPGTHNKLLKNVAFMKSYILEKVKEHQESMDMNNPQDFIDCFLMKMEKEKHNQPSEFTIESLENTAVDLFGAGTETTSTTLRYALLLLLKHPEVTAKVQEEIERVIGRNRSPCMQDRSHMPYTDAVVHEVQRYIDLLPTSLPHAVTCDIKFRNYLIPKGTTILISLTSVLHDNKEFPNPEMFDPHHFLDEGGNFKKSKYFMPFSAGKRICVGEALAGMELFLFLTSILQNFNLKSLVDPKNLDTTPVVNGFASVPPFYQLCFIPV

A word on the EC50: it is the concentration at which the effect is half-maximal. A word on the IC50: it is the concentration at which inhibition is half-maximal. In the case of `Nc1[nH]ncc1-c1ccccc1`, the Activity result in [1] and in [4] was “Non-Toxic” in each case. The EC50 in data set [2] is > 25 µM. Further, the IC50 in data set [3] is > 25 µM.
For the molecule `Cc1noc(N)c1-c1ccccc1`, the Activity entry in [1] and in [4] was “Non-Toxic” each time. Besides, the EC50 in data set [2] turned out to be 9.7 µM. The remaining at 2 h, 500 µM turned out to be 50% in data set [5], 65% in data set [6] and 84% in [7].
With `Nc1oncc1C1CCCCC1`, the Activity result in [1] and in [4] was “Non-Toxic” in each case. Further, the EC50 in data set [2] was 1.5 µM. Besides, the IC50 in [3] was determined as 7.8 µM.
Take `Nc1cnsc1-c1ccccc1`: the Activity result in data set [1] and in data set [4] was “Non-Toxic” in each case. Besides, the EC50 in data set [2] was > 25 µM. Also, the half-inhibitory concentration (IC50) in data set [3] is > 25 µM.
As for `Nc1oncc1-c1ccc(Cl)cc1`, the Activity result in data set [1] and in data set [4] was “Non-Toxic” throughout. For the same molecule, the EC50 in data set [2] is 0.95 µM. For the same molecule, the concentration for half-maximal inhibition (IC50) in data set [8] was determined as 4.21 µM; in [3], 0.83 µM.
For the molecule `NC(=O)c1oncc1-c1ccccc1`, the Activity entry in [1] and in [4] was “Non-Toxic” in each case. Besides, the concentration giving a half-maximal response (EC50) in data set [2] is > 25 µM. Besides, the IC50 in data set [3] is > 25 µM.
`Nc1cnoc1-c1ccccc1`: the Activity result in data set [1] and in data set [4] was “Non-Toxic” each time. The 50% effective concentration (EC50) in data set [2] was > 25 µM. In data set [3], the IC50 is > 25 µM.
Consider `COc1cccc(-c2cnoc2N)c1`, for which the Activity result in data set [1] and in [4] was “Non-Toxic” each time. Also, the concentration giving a half-maximal response (EC50) in data set [2] stood at 1.5 µM. Besides, the IC50 in [3] turned out to be 3.1 µM.
Regarding `CNc1oncc1-c1ccccc1`, the Activity result in data set [1] and in data set [4] was “Non-Toxic” in each case. Moreover, the EC50 in data set [2] came out at 0.67 µM. Moreover, the concentration for half-maximal inhibition (IC50) in data set [3] came out at 0.19 µM. For the same molecule, the remaining at 2 h, 500 µM in data set [5] came to 0.1%; in data set [6], 0.1%; in data set [7], 0.3%.
For `Nc1snnc1-c1ccccc1`, the Activity result in data set [1] and in data set [4] was “Non-Toxic” in each case. The EC50 in data set [2] is > 25 µM. Further, the half-maximal inhibitory concentration (IC50) in data set [3] is > 25 µM.
As to `OCc1oncc1-c1ccccc1`, the Activity result in data set [1] and in data set [4] was “Non-Toxic” in each case. The EC50 in data set [2] was 18 µM. Besides, the half-maximal inhibitory concentration (IC50) in data set [3] is 4.4 µM.
For `Nc1oncc1-c1ccccn1`, the Activity result in data set [1] and in data set [4] was “Non-Toxic” throughout. The EC50 in [2] stood at 0.82 µM. In data set [3], the IC50 turned out to be 1.7 µM.
Take `Nc1oncc1-c1cccs1`: the Activity entry in [1] and in data set [4] was “Non-Toxic” each time. Further, the EC50 in data set [2] turned out to be 0.81 µM. In addition, in data set [3], the IC50 amounted to 0.029 µM.
On to `Nc1oncc1-c1ccccc1`, for which the half-inhibitory concentration (IC50) is > 10 µM in data set [9]; > 10 µM in data set [10]; > 10 µM in [11]; 0.14 µM in [3]; > 10 µM in data set [12]; > 10 µM in [13]. Moreover, the Activity result in data set [1] and in [4] was “Non-Toxic” each time. Also, the EC50 in [2] is 0.085 µM. In addition, the remaining at 2 h, 500 µM in [5], in data set [6] and in data set [7] was 0% in each case.
As to `Nc1oncc1-n1cc(F)cn1`, the IC50 in data set [9] was > 10 µM; in data set [10], > 10 µM; in data set [11], > 10 µM; in data set [3], 0.34 µM; in data set [12], > 10 µM; in [13], > 10 µM. Besides, the Activity entry in [1] and in data set [4] was “Non-Toxic” throughout. Besides, the EC50 in data set [2] worked out at 0.077 µM. Also, the remaining at 2 h, 500 µM in [7] was determined as 91%.
Consider `Nc1oncc1C1CCCC1`, for which the Activity result in data set [1] and in [4] was “Non-Toxic” each time. The EC50 in data set [2] turned out to be 0.36 µM. Besides, the IC50 in [3] stood at 0.64 µM.
For `Nc1cnnn1-c1ccccc1`, the Activity entry in data set [1] and in data set [4] was “Non-Toxic” in each case. The half-maximal effective concentration (EC50) in data set [2] was > 25 µM. Besides, in data set [3], the IC50 was > 25 µM.
As for `CNC(=O)c1oncc1-c1ccccc1`, the Activity entry in [1] and in [4] was “Non-Toxic” in each case. Also, the EC50 in data set [2] is > 25 µM. The IC50 in data set [3] is > 25 µM.
As to `Nc1nncn1-c1ccccc1`, the Activity entry in [1] and in data set [4] was “Non-Toxic” in each case. Also, in data set [2], the 50% effective concentration (EC50) is > 25 µM. Moreover, the IC50 in data set [3] is > 25 µM.
Consider `Nc1oncc1-n1cccn1`, for which the IC50 was > 10 µM in data set [9]; > 10 µM in data set [10]; > 10 µM in data set [11]; 0.29 µM in data set [3]; > 10 µM in [12]; > 10 µM in [13]. Moreover, the Activity entry in [1] and in [4] was “Non-Toxic” each time. The concentration for a half-maximal effect (EC50) in data set [2] amounted to 0.23 µM.
For the molecule `Cn1ncc(-c2ccccc2)c1N`, the Activity result in data set [1] and in data set [4] was “Non-Toxic” in each case. The 50% effective concentration (EC50) in data set [2] is > 25 µM. Also, the IC50 in data set [3] was > 25 µM.
For `Nc1oncc1-c1cccc(Cl)c1`, the Activity result in [1] and in data set [4] was “Non-Toxic” throughout. The concentration giving a half-maximal response (EC50) in data set [2] was found to be 0.25 µM. The IC50 came to 2.94 µM in data set [8] and 0.5 µM in data set [3].
For the molecule `Nc1oncc1-c1ccc(F)cc1`, the Activity entry in data set [1] and in data set [4] was “Non-Toxic” throughout. In addition, in data set [2], the EC50 stood at 0.21 µM. The IC50 in data set [3] worked out at 0.58 µM.
As for `Nc1sncc1-c1ccccc1`, the Activity entry in data set [1] and in data set [4] was “Non-Toxic” each time. Also, the 50% effective concentration (EC50) in [2] was > 25 µM. Also, the concentration for half-maximal inhibition (IC50) in [3] was found to be 18 µM.
In the case of `c1ccc(-c2cnoc2)cc1`, the Activity result in data set [1] and in [4] was “Non-Toxic” throughout. Further, the EC50 in data set [2] was > 25 µM. Also, the half-maximal inhibitory concentration (IC50) in data set [3] is > 25 µM.
Consider `Nc1oncc1-c1ccsc1`, for which the IC50 in [9] is > 10 µM; in [10] it was > 10 µM; in [11], > 10 µM; in data set [3] it was 0.028 µM; in [12], > 10 µM; in data set [13], > 10 µM. The Activity entry in data set [1] and in [4] was “Non-Toxic” throughout. Moreover, the EC50 in [2] came out at 0.099 µM. Moreover, the remaining at 0.5 h, 500 µM in [14] and in [15] was 3% in each case.
For the molecule `Nc1nnsc1-c1ccccc1`, the Activity result in data set [1] and in data set [4] was “Non-Toxic” throughout. In data set [2], the EC50 was > 25 µM. The IC50 in data set [3] stood at 0.27 µM.
Turning to `Cc1ccn(-c2cnoc2N)n1`, the Activity entry in [1] and in data set [4] was “Non-Toxic” throughout. The EC50 in [2] worked out at 0.81 µM. For the same molecule, the half-inhibitory concentration (IC50) in data set [3] is 1.6 µM.
With `Nc1oncc1-c1cccnc1`, the Activity result in data set [1] and in data set [4] was “Non-Toxic” throughout. For the same molecule, in data set [2], the 50% effective concentration (EC50) was 1.4 µM. Besides, in data set [3], the IC50 came out at 2.3 µM.
On to `Cc1cnn(-c2cnoc2N)c1`, for which the Activity entry in [1] and in data set [4] was “Non-Toxic” throughout. Moreover, the EC50 in [2] was 0.34 µM. In addition, the IC50 in data set [3] is 1.6 µM.
